Test system: SEM cells
Experiment: cell viability relative to DMSO control; higher = less cytotoxic
Details: 48 h
In short: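 Three leukemia lines were tested: NOMO1 and SEM at 500 cells/well and P12-Ichikawa at 1000 cells/well. Each was adapted for at least four passages in each medium and seeded in 5 μl in 1536-well plates, and library compounds in DMSO were pin-dosed from 47 μM to 0.79 nM in 11 threefold steps. After 48 h at 37°C, CellTiter-Glo One luminescence was read. Viability is a percentage relative to DMSO wells on each plate, with cell-free wells as background.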

[1] = HPLM + 10% dialyzed FBS, 0.000781 µM
[2] = HPLM + 10% dialyzed FBS, 0.00234 µM
[3] = HPLM + 10% dialyzed FBS, 0.00702 µM
[4] = HPLM + 10% dialyzed FBS, 0.0211 µM
[5] = HPLM + 10% dialyzed FBS, 0.0632 µM
[6] = HPLM + 10% dialyzed FBS, 0.19 µM
[7] = HPLM + 10% dialyzed FBS, 0.569 µM
[8] = HPLM + 10% dialyzed FBS, 1.71 µM
[9] = HPLM + 10% dialyzed FBS, 5.12 µM
[10] = HPLM + 10% dialyzed FBS, 15.4 µM
[11] = HPLM + 10% dialyzed FBS, 46.1 µM
[12] = RPMI 5 mM glucose + 10% FBS, 0.000781 µM
[13] = RPMI 5 mM glucose + 10% FBS, 0.00234 µM
[14] = RPMI 5 mM glucose + 10% FBS, 0.00702 µM
[15] = RPMI 5 mM glucose + 10% FBS, 0.0211 µM
[16] = RPMI 5 mM glucose + 10% FBS, 0.0632 µM
[17] = RPMI 5 mM glucose + 10% FBS, 0.19 µM
[18] = RPMI 5 mM glucose + 10% FBS, 0.569 µM
[19] = RPMI 5 mM glucose + 10% FBS, 1.71 µM
[20] = RPMI 5 mM glucose + 10% FBS, 5.12 µM
[21] = RPMI 5 mM glucose + 10% FBS, 15.4 µM
[22] = RPMI 5 mM glucose + 10% FBS, 46.1 µM
[23] = RPMI 5 mM glucose + 10% dialyzed FBS, 0.000781 µM
[24] = RPMI 5 mM glucose + 10% dialyzed FBS, 0.00234 µM
[25] = RPMI 5 mM glucose + 10% dialyzed FBS, 0.00702 µM
[26] = RPMI 5 mM glucose + 10% dialyzed FBS, 0.0211 µM
[27] = RPMI 5 mM glucose + 10% dialyzed FBS, 0.0632 µM
[28] = RPMI 5 mM glucose + 10% dialyzed FBS, 0.19 µM
[29] = RPMI 5 mM glucose + 10% dialyzed FBS, 0.569 µM
[30] = RPMI 5 mM glucose + 10% dialyzed FBS, 1.71 µM
[31] = RPMI 5 mM glucose + 10% dialyzed FBS, 5.12 µM
[32] = RPMI 5 mM glucose + 10% dialyzed FBS, 15.4 µM
[33] = RPMI 5 mM glucose + 10% dialyzed FBS, 46.1 µM

| Compound | cell viability [1] | cell viability [2] | cell viability [3] | cell viability [4] | cell viability [5] | cell viability [6] | cell viability [7] | cell viability [8] | cell viability [9] | cell viability [10] | cell viability [11] | cell viability [12] | cell viability [13] | cell viability [14] | cell viability [15] | cell viability [16] | cell viability [17] | cell viability [18] | cell viability [19] | cell viability [20] | cell viability [21] | cell viability [22] | cell viability [23] | cell viability [24] | cell viability [25] | cell viability [26] | cell viability [27] | cell viability [28] | cell viability [29] | cell viability [30] | cell viability [31] | cell viability [32] | cell viability [33] |
| --- | --- | --- | --- | --- | --- | --- | --- | --- | --- | --- | --- | --- | --- | --- | --- | --- | --- | --- | --- | --- | --- | --- | --- | --- | --- | --- | --- | --- | --- | --- | --- | --- | --- |
| OC(CN1CCN(c2cccc(Cl)c2)CC1)C(c1ccccc1)c1ccccc1 (stereo unspecified) | 99.1% | 97.9% | 102% | 101% | 104% | 110% | 92.1% | 10.6% | 8.66% | 7.09% | 7.14% | 101% | 95.2% | 106% | 107% | 111% | 32.4% | 24% | 6.74% | 8% | 8.3% | 7.07% | 111% | 95.2% | 104% | 103% | 105% | 38.2% | 42.9% | 7.36% | 8.19% | 8.02% | 7.53% |
| CC(C)OC1=CC=C2C(=C1)O\C=C(/C2=O)C3=CC=CC=C3 | 106% | 118% | 105% | 118% | 115% | 123% | 110% | 125% | 112% | 133% | 106% | 113% | 123% | 134% | 109% | 131% | 130% | 133% | 144% | 128% | 144% | 116% | 106% | 133% | 121% | 126% | 129% | 146% | 157% | 156% | 147% | 148% | 126% |
| CC(C)(O)c1cc2nc(-c3cnc(N)nc3)nc(N3CCOCC3)c2s1 | 122% | 125% | 99.7% | 113% | 106% | 106% | 77.2% | 59.9% | 44.5% | 41% | 38% | 82.9% | 79.1% | 74.3% | 76% | 78.2% | 68.4% | 57.1% | 39.1% | 29.1% | 26.7% | 23.3% | 106% | 113% | 97.7% | 107% | 105% | 94.7% | 81.4% | 52.3% | 48.1% | 47.8% | 37.3% |
| c1ccc(-c2oc3ncnc(NC[C@@H]4CCCO4)c3c2-c2ccccc2)cc1 | 115% | 115% | 114% | 121% | 126% | 130% | 125% | 134% | 128% | 121% | 79.4% | 111% | 112% | 109% | 103% | 108% | 110% | 105% | 106% | 112% | 99.9% | 61.1% | 121% | 129% | 115% | 118% | 104% | 136% | 111% | 112% | 118% | 124% | 69.6% |
| CNC(=O)CN1CCC(Oc2cc3c(Nc4cccc(Cl)c4F)ncnc3cc2OC)CC1 | 104% | 110% | 110% | 135% | 112% | 122% | 128% | 130% | 121% | 129% | 104% | 117% | 128% | 116% | 118% | 120% | 130% | 130% | 124% | 125% | 122% | 84.9% | 114% | 113% | 120% | 141% | 138% | 152% | 140% | 149% | 125% | 138% | 88.8% |
| NC(=O)Nc1cc(-c2cccc(F)c2)sc1C(=O)N[C@H]1CCCNC1 | 88.8% | 62% | 66.4% | 46.3% | 38.2% | 28.6% | 27.5% | 27.1% | 23.3% | 19% | 20.3% | 110% | 84.4% | 71.6% | 45.2% | 45% | 37.6% | 32.7% | 27.7% | 20.4% | 11.3% | 13.7% | 98.9% | 69.4% | 52.4% | 44.5% | 32.2% | 26.3% | 25.5% | 21.3% | 16.7% | 12.4% | 10.6% |
| O=c1[nH]c(=O)n(C2CCCO2)cc1F (stereo unspecified) | 92.4% | 124% | 105% | 119% | 122% | 127% | 92.5% | 111% | 90.2% | 104% | 99.1% | 123% | 120% | 109% | 126% | 115% | 110% | 127% | 114% | 123% | 122% | 104% | 70.2% | 110% | 109% | 117% | 99.7% | 115% | 108% | 109% | 102% | 104% | 97.8% |
| CC(C)Oc1ccc(C(=O)N[C@H](CNC(=O)CN(C)C)Cc2ccc(-c3cn4cccc([C@H](C)O)c4n3)cc2)cc1Cl | 116% | 129% | 112% | 109% | 118% | 118% | 102% | 44.5% | 33.5% | 39.9% | 48.5% |  |  |  |  |  |  |  |  |  |  |  | 117% | 119% | 117% | 125% | 111% | 111% | 111% | 38.2% | 34.4% | 29.4% | 35.5% |
| COc1cc(/C=C/C(=O)O)ccc1O | 80.5% | 92.9% | 64.5% | 93.6% | 92.8% | 90.1% | 91.9% | 106% | 44.8% | 89.9% | 100% | 94.1% | 89% | 62.1% | 84.1% | 99.5% | 94.9% | 101% | 101% | 37.5% | 88.4% | 98.1% | 93.4% | 99.2% | 68.6% | 110% | 115% | 106% | 109% | 104% | 46% | 105% | 106% |
| Cc1cccc(/C=N/Nc2cc(N3CCOCC3)nc(OCCc3ccccn3)n2)c1 | 99.3% | 93.8% | 102% | 100% | 111% | 87% | 104% | 72.8% | 82.7% | 52.9% | 31.8% | 97.8% | 98.9% | 106% | 109% | 105% | 96.1% | 95.4% | 85.9% | 66.9% | 34.9% | 13.4% | 104% | 100% | 101% | 96.8% | 90.3% | 81.3% | 70.8% | 73.8% | 54.9% | 35.3% | 7.57% |
| OCCn1cc(-c2cnc3nnn(Cc4ccc5ncccc5c4)c3n2)cn1 | 102% | 107% | 99.5% | 98.1% | 97.9% | 89.3% | 89.5% | 91.5% | 85.3% | 72.1% | 38.5% | 122% | 138% | 124% | 133% | 120% | 116% | 109% | 90.7% | 82.1% | 73.9% | 26.6% | 84.6% | 97.9% | 102% | 108% | 107% | 106% | 118% | 97.3% | 82% | 60.5% | 33.4% |
| Nc1ncnc2c1c(-c1cccc(OCc3ccccc3)c1)cn2C1CC(CN2CCCC2)C1 (stereo unspecified) | 97.6% | 112% | 120% | 108% | 113% | 111% | 89.8% | 83.1% | 63.8% | 45.4% | 29.6% | 89.4% | 113% | 125% | 115% | 128% | 121% | 103% | 95.3% | 87.8% | 54.8% | 31.5% |  |  |  |  |  |  |  |  |  |  |  |
| CN(C)CCN1C(=O)c2cccc3cc(N)cc(c23)C1=O | 94.4% | 89.4% | 110% | 108% | 105% | 107% | 108% | 91.1% | 51% | 30.3% | 3.64% | 70.2% | 67.3% | 71.5% | 72.1% | 73.8% | 74.1% | 62.6% | 52.4% | 32.1% | 19.3% | 2.87% | 89.5% | 95% | 98.8% | 102% | 112% | 99.3% | 106% | 92% | 60.1% | 34.6% | 3.19% |
| COC(=O)\C1=C\CCN(C)C1 | 113% | 109% | 106% | 113% | 102% | 117% | 103% | 105% | 109% | 114% | 106% | 107% | 103% | 106% | 109% | 104% | 111% | 111% | 110% | 98.8% | 99.8% | 110% | 101% | 111% | 109% | 115% | 127% | 106% | 114% | 124% | 110% | 106% | 105% |
| CC(C)Cc1ccc(C(C)C(=O)O)cc1 (stereo unspecified) | 68.7% | 84.7% | 80.1% | 78.6% | 84.9% | 90.7% | 82.2% | 78.3% | 71.3% | 85.6% | 26.4% | 90.1% | 69.4% | 80.9% | 91.3% | 89.4% | 81.9% | 98.8% | 87% | 95.4% | 77.2% | 22.8% | 93.5% | 84.4% | 89.5% | 90.9% | 87.5% | 98.3% | 99.5% | 98.6% | 100% | 77.5% | 35.7% |
| C[C@H]1COC/2=C1/C(=O)C(=O)C3=C4CCCC(C)(C)C4=CC=C23 | 116% | 93.8% | 113% | 126% | 126% | 134% | 125% | 106% | 92.1% | 84.1% | 43.1% | 124% | 114% | 135% | 128% | 141% | 130% | 106% | 85.3% | 42.1% | 38.1% | 12.5% | 112% | 107% | 118% | 128% | 140% | 116% | 111% | 104% | 67.4% | 64.5% | 17.3% |

From the supplement of paper PMC11451515
